Measurements reported in US11548888B2, “KRas G12C inhibitors” (Mirati Therapeutics, Inc., priority 2019, dated 2023).

These molecules were tested against T1, KRas G12C (Homo sapiens, UniProt P01116, G12C) (assay: Inhibition of KRas G12C-dependent cell growth: Phospho-ERK in NCI-H358 cells). Conditions: NCI-H358 cells expressing KRas G12C; Phospho-ERK (Thr202/Tyr204) normalized to GAPDH; 3 hours compound; 4 parameter fit.
T1 construct: NCI-H358 cells (ATCC CRL-5807) express KRas G12C
Assay type: cell-based
Method: The cellular inhibition of KRAs G12C by exemplary compounds of the present invention was determined by measuring the amount of a downstream marker of KRas activity, phosphorylated ERK (“Phospho-ERK”).
NCI-H358 cells (ATCC CRL-5807) express KRas G12C and were grown in RPMI medium supplemented with 10% fetal bovine serum, penicillin/streptomycin and 10 mM HEPES. Cells were plated in poly-D-Lysine coated 96-well plates at a concentration of 50,000 cells/well and allowed to attach for 8-12 hours. Diluted compounds were then added at a final concentration of 0.5% DMSO. After 3 hours, the medium was removed, 150 μL of 4% formaldehyde was added and the plates were incubated for 20 minutes. The plates were washed with PBS, and permeabilized using 150 μL of ice cold 100% methanol for 10 minutes. Non-specific antibody binding to the plates was blocked using 100 μL Licor Blocking Buffer (Li-Cor Biotechnology, Lincoln Nebr.) for 1 hour at room temperature. Positive control samples and samples lacking cells were parallel processed with test samples as standards.
The amount Phospho-ERK was determined using an antibody specific for the phosphorylated form of ERK and compared to the amount of GAPDH. Primary antibodies used for detection were added as follows: Phospho-ERK (Cell Signaling cs9101) diluted 1:500 and GAPDH (Millipore MAB374) diluted 1:5000 in Licor block+0.05% Tween 20. The plates were incubated for 2 hours at room temperature. The plates were washed with PBS+0.05% Tween 20.
Secondary antibodies used to visualize primary antibodies were added as follows: Anti-rabbit-680 diluted 1:1000 and Anti-mouse-800 diluted 1:1000 in Licor Block+0.05% Tween 20 and incubated for 1 hour at room temperature. The plates were washed with PBS+0.05% Tween 20. A 100 μL aliquot of PBS was added to each well and the plates were read on a LICOR AERIUS plate reader.
The pERK(Thr202/Tyr204) signal was normalized with the GAPDH signal and percent of DMSO control values were calculated. IC50 values were generated using a 4 parameter fit of the dose response curve.

T1 sequence (P01116 1-188 isoform P01116-2 G12C): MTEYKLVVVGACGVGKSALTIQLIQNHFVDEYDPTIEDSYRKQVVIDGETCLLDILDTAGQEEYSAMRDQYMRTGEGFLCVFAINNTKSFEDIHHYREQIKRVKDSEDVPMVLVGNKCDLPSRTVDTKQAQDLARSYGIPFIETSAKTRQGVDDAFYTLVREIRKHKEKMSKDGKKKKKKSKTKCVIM

IC50	Compound
714 nM	C=CC(=O)N1CC[C@@H]2[C@H]1CN2c1ncnc2c(F)c(-c3cccc4cccc(CC)c34)ncc12 [Example 303, 1-((1R, 5R)-6-(7-(8-ethylnaphthalen-1-yl)-8-fluoropyrido[4,3-d]pyrimidin-4-yl)-2,6-diazabicyclo[3.2.0]heptan-2-yl)prop-2-en-1-one]
3500 nM	C=CC(=O)N1CC2(CCN(c3nc(OC[C@@H]4CCCN4C)nc4c(F)c(-c5c(C)ccc6[nH]ncc56)ncc34)CC2)C1 [Example 83]
12 nM	CC(C)(C)N1CCC1COc1nc(N2CCN(C(=O)/C=C/CF)[C@@H](CC#N)C2)c2cnc(-c3cccc4cccc(Cl)c34)c(F)c2n1 (stereo partly drawn) [Example 66]
330 nM	C=CC(=O)N1CC[C@@H]2[C@H]1CN2c1nc(OC)nc2c(F)c(-c3cccc4ccc(F)c(Cl)c34)ncc12 [Example 267]
18 nM	C=C(F)C(=O)N1CCN(c2nc(OC[C@@H]3C[C@@H](OC)CN3C(C)C)nc3c(F)c(-c4cccc5ccc(F)c(Cl)c45)ncc23)C[C@@H]1CC#N [Example 117]
187 nM	C=CC(=O)N1CCN(c2ncnc3c(F)c(-c4c(Cl)c(C)cc5[nH]ncc45)ncc23)C[C@@H]1CC#N [Example 242]
10000 nM	C=CC(=O)N1CCN(c2ncnc3c(F)c(-c4cccc5ccc(F)c(Cl)c45)ncc23)CC1 [Example 134]
105 nM	C=C(F)C(=O)N1CCN(c2nc(OC[C@@H]3CC(F)(F)CN3C)nc3c(F)c(-c4cccc5cccc(Cl)c45)ncc23)C[C@@H]1CC#N [Example 21, 2-((S)-4-(7-(8-chloronaphthalen-1-yl)-2-(((S)-4,4-difluoro-1-methylpyrrolidin-2-yl)methoxy)-8-fluoropyrido[4,3-d]pyrimidin-4-yl)-1-(2-fluoroacryloyl)piperazin-2-yl)acetonitrile]
4 nM	CN1C[C@H](F)C[C@H]1COc1nc(N2CCN(C(=O)/C=C/CF)[C@@H](CC#N)C2)c2cnc(-c3cccc4cccc(Cl)c34)c(F)c2n1 [Example 43, 2-[(2S)-4-[7-(8-chloro-1-naphthyl)-8-fluoro-2-[[(2S,4R)-4-fluoro-1-methyl-pyrrolidin-2-yl]methoxy]pyrido[4,3-d]pyrimidin-4-yl]-1-[(E)-4-fluorobut-2-enoyl]piperazin-2-yl]acetonitrile]
6610 nM	C=CC(=O)N1CC[C@@H]2[C@H]1CN2c1ncnc2c(F)c(-c3cccc4sccc34)ncc12 [Example 276]
538 nM	C=CC(=O)N1CCN(c2nc(C3CC3)nc3c(F)c(-c4cccc5ccc(F)c(Cl)c45)ncc23)C[C@@H]1CC#N [Example 219, (S)-2-(1-acryloyl-4-(7-(8-chloro-7-fluoronaphthalen-1-yl)-2-cyclopropyl-8-fluoropyrido[4,3-d]pyrimidin-4-yl)piperazin-2-yl)acetonitrile]
142 nM	C=CC(=O)N1C2CCC1CN(c1nc(OC[C@@H]3CCCN3C)nc3c(F)c(-c4cc(O)cc5ccccc45)ncc13)C2 [Example 9, 1-[3-[8-fluoro-7-(3-hydroxy-1-naphthyl)-2-[[(2S)-1-methylpyrrolidin-2-yl]methoxy]pyrido[4,3-d]pyrimidin-4-yl]-3,8-diazabicyclo[3.2.1]octan-8-yl]prop-2-en-1-one]
74 nM	C=CC(=O)N1CCN(c2nc(N3CCC3)nc3c(F)c(-c4cccc5ccc(F)c(Cl)c45)ncc23)C[C@@H]1CC#N [Example 187]
1250 nM	C=C(F)C(=O)N1CCN(c2nc(OCc3cc4ncccc4[nH]3)nc3c(F)c(-c4cccc5ccc(F)c(Cl)c45)ncc23)C[C@@H]1CC#N [Example 142]
50 nM	C=CC(=O)N1CCN(c2nc(OC[C@@H]3CCCN3C)nc3c(F)c(-c4cccc5ccc(F)c(Cl)c45)ncc23)C[C@@H]1C [Example 141]
18 nM	C=C(F)C(=O)N1CCN(c2nc(OC[C@H]3CCN3CC)nc3c(F)c(-c4cccc5ccc(F)c(Cl)c45)ncc23)C[C@@H]1CC#N [Example 172]
444 nM	C=C(F)C(=O)N1CCN(c2nc(OC[C@@H]3CCCN3C)nc3c(F)c(-c4c(C)ccc5cnn(C)c45)ncc23)C[C@@H]1CC#N [Example 99]
14 nM	C=C(F)C(=O)N1CCN(c2nc(OC[C@@H]3CCCN3C)nc3c(F)c(-c4cccc5ccc(F)c(C)c45)ncc23)C[C@@H]1CC#N [Example 86]
2520 nM	C=C(F)C(=O)N1CCN(c2nc(NC3CCN(C4CC4)CC3)nc3c(F)c(-c4cccc5cccc(Cl)c45)ncc23)C[C@@H]1CC#N [Example 97]
10000 nM	C=CC(=O)N1CCN(c2nc(OC[C@@H]3CCCN3C)nc3c(F)c(-c4nc(N)ccc4Cl)ncc23)CC1 [Example 103]
13 nM	C=C(F)C(=O)N1CCN(c2nc(OC[C@@H]3C[C@@H](OC)CN3C)nc3c(F)c(-c4cccc5ccc(F)c(Cl)c45)ncc23)C[C@@H]1CC#N [Example 113]
10000 nM	C=CC(=O)N1CCC12CCN(c1ncnc3c(F)c(-c4cccc5ccc(F)c(Cl)c45)ncc13)C2 (stereo not drawn) [Example 235]
1190 nM	C=C(F)C(=O)N1CCN(c2nc(OC[C@@H]3CCCN3C)nc3c(F)c(-c4cccc5cccc(Cl)c45)ncc23)[C@@H](C)C1 [Example 75]
127 nM	C=C(F)C(=O)N1CCN(c2nc(OC[C@@H]3CC(F)(F)CN3C)nc3c(F)c(-c4cccc5cccc(C)c45)ncc23)C[C@@H]1CC#N [Example 13, 2-((S)-4-(2-(((S)-4,4-difluoro-1-methylpyrrolidin-2-yl)methoxy)-8-fluoro-7-(8-methylnaphthalen-1-yl)pyrido[4,3-d]pyrimidin-4-yl)-1-(2-fluoroacryloyl)piperazin-2-yl)acetonitrile]
109 nM	Cc1cccc2cccc(-c3ncc4c(N5CCN(C(=O)/C=C/CF)[C@@H](CC#N)C5)nc(OC[C@@H]5CC(F)(F)CN5C)nc4c3F)c12 [Example 24, 2-((S)-4-(2-(((S)-4,4-difluoro-1-methylpyrrolidin-2-yl)methoxy)-8-fluoro-7-(8-methylnaphthalen-1-yl)pyrido[4,3-d]pyrimidin-4-yl)-1-((E)-4-fluorobut-2-enoyl)piperazin-2-yl)acetonitrile]
270 nM	N#CC[C@H]1CN(c2nc(OCCCN3C[C@@H]4C[C@H]3CO4)nc3c(F)c(-c4cncc5cccc(Cl)c45)ncc23)CCN1C(=O)/C=C/CF [Example 48, 2-[(2S)-4-[7-(5-chloro-4-isoquinolyl)-8-fluoro-2-[3-[(1S,4S)-2-oxa-5-azabicyclo[2.2.1]heptan-5-yl]propoxy]pyrido[4,3-d]pyrimidin-4-yl]-1-[(E)-4-fluorobut-2-enoyl]piperazin-2-yl]acetonitrile]
38 nM	C=C(F)C(=O)N1CCN(c2nc(OC[C@@H]3C[C@@H](OC)CN3C)nc3c(F)c(-c4cccc5cccc(Cl)c45)ncc23)C[C@@H]1CC#N [Example 22, 2-[(2S)-4-[7-(8-chloro-1-naphthyl)-8-fluoro-2-[[(2S,4R)-4-methoxy-1-methyl-pyrrolidin-2-yl]methoxy]pyrido[4,3-d]pyrimidin-4-yl]-1-(2-fluoroprop-2-enoyl)piperazin-2-yl]acetonitrile]
10000 nM	C=CC(=O)N1C[C@@H]2[C@H]1CCN2c1ncnc2c(F)c(-c3cccc4ccc(F)c(Cl)c34)ncc12 [Example 190]
418 nM	C#Cc1cccc2cncc(-c3ncc4c(N5C[C@@H]6[C@H]5CCN6C(=O)C=C)ncnc4c3F)c12 [Example 295]
6850 nM	C=C(F)C(=O)N1CCN(c2nc(Oc3cccc4c3CCN(C)C4)nc3c(F)c(-c4cccc5ccc(F)c(Cl)c45)ncc23)C[C@@H]1CC#N [Example 207]
